Data set [1] deals with T1, Proteasome subunit beta type-8 (Homo sapiens) (UniProt P28062).
T1 sequence (whole entry): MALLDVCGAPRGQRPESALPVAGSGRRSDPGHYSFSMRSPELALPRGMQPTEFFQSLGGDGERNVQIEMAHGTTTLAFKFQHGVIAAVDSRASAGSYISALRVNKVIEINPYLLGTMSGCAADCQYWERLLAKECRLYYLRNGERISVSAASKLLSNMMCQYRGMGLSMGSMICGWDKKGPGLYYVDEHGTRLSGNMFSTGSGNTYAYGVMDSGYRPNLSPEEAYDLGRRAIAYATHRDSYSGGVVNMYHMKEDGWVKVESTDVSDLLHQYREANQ
The data set is described as follows: Inhibition of human chymotrypsin-like beta 5i subunit of iCP assessed as residual activity using suc-LLVY-AMC as flurogenic substrate at 10 uM for 90 mins by fluorescence-based assay.

The target of data set [2] is T2, Proteasome Macropain subunit MB1 (Homo sapiens, UniProt P28074).
T2 sequence (P28074 whole entry): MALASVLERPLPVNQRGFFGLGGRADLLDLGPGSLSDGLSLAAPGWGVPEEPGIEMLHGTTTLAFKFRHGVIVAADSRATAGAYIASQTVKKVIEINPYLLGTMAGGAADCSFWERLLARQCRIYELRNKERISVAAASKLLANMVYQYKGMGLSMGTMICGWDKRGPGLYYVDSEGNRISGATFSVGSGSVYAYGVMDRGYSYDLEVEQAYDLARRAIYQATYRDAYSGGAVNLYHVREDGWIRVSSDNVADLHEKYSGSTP
The data set is described as follows: Inhibition of beta 5 chymotrypsin-like activity (unknown origin) using Suc-LLVY-AMC as substrate for 90 mins by fluorescence based assay.

The target of data set [3] is T3, Proteasome subunit beta type-8 (Homo sapiens, UniProt P28062).
T3 sequence (P28062 whole entry): T1 sequence (whole entry)
The data set is described as follows: Inhibition of human chymotrypsin-like beta 5i subunit of iCP using suc-LLVY-AMC as flurogenic substrate for 90 mins by fluorescence-based assay.

The target of data set [4] is T1, Proteasome subunit beta type-8 (Homo sapiens). The data set is described as follows: Inhibition of human chymotrypsin-like beta 5i subunit of iCP assessed as cysteine-48 labelling by Ellman's method.
For data set [5] the target is unchanged. The data set is described as follows: Inhibition of human chymotrypsin-like beta 5i subunit of iCP assessed as residual activity using suc-LLVY-AMC as flurogenic substrate at 100 uM for 90 mins by fluorescence-based assay.
The nature of data set [6]: Solubility of the compound in buffer. It is filed as physicochemical.
For data set [7], the species on record is Homo sapiens. The data set is described as follows: Selectivity ratio of IC50 for human beta2i subunit of iCP Pto IC50 for human chymotrypsin-like beta 5i subunit of iCP.
The species entered for data set [8] is Homo sapiens. The data set is described as follows: Selectivity ratio of IC50 for human beta2 subunit of cCP Pto IC50 for human chymotrypsin-like beta 5i subunit of iCP.
The species entered for data set [9] is Homo sapiens. The data set is described as follows: Selectivity ratio of IC50 for human beta1i subunit of iCP Pto IC50 for human chymotrypsin-like beta 5i subunit of iCP.
Data set [10] in a line: Solubility of the compound in DMSO. The data set is classed as physicochemical.
For data set [11], the target named is T4, Proteasome Macropain subunit MB1 (Homo sapiens) (UniProt P28074).
T4 sequence (whole entry): T2 sequence (P28074 whole entry)
The data set is described as follows: Inhibition of beta 5 chymotrypsin-like activity (unknown origin) at 100 uM using Suc-LLVY-AMC as substrate for 90 mins by fluorescence based assay. The arrangement: scale not given: the % may be the effect or the level left.

Data set [12] in a line: Thiol reactivity of the compound assessed as TNB2-depletion at 200 uM measured upto 24 hrs by TNB2-depletion assay. The data set is classed as physicochemical.
Data set [13] has as its target T1, Proteasome subunit beta type-8 (Homo sapiens). The data set is described as follows: Inhibition of human chymotrypsin-like beta 5i subunit of iCP assessed as residual activity using suc-LLVY-AMC as flurogenic substrate at 150 uM for 90 mins by fluorescence-based assay.
The nature of data set [14]: Glutathione reactivity of compound at pH 9 measured by HPLC-MS assay. The data set is classed as physicochemical.
A short description of data set [15]: Glutathione reactivity of compound at pH 8 measured by HPLC-MS assay. The data set is classed as physicochemical.
Data set [16] in a line: Glutathione reactivity of compound at pH 7.5 measured by HPLC-MS assay. The data set is classed as physicochemical.
A short description of data set [17]: Glutathione reactivity of compound at pH 8.5 measured by HPLC-MS assay. It is filed as physicochemical.

The source made the active and inactive calls. The calls are words filed in the database; no cut-off is given here.

Take `CC(=O)Nc1ccc2[nH]c(=S)[nH]c2c1`: the Activity in data set [1] was 57%.
With `N#Cc1nc2ccc(Cl)cc2o1`, the IC50 in data set [2] was 45 µM; in data set [3], 9.1 µM. Moreover, the inhibition result in [4] was “Active”.
For `Cc1ccc2nc(S)sc2c1`, in [5], the Activity came to 55%. The solubility entry in data set [6] is “Insoluble”.
Take `O=S(=O)(F)c1nc2ccccc2s1`: the IC50 in data set [2] is 81 µM; in data set [3] it was 11 µM. The Ratio IC50 in the data set listed under Homo sapiens [7], in the data set filed under Homo sapiens [8] and in the data set filed under Homo sapiens [9] was 7 each time.
In the case of `Sc1nc2ccc(Cl)cc2s1`, in [10], the solubility result is “Insoluble”.
Still for that read-out and setting: the value for `O=C(CCc1cccnc1)Nc1cccc2[nH]c(=S)oc12` was “Insoluble”.
With `Cn1c(=S)[nH]c2ccc(NC(=O)c3ccccc3)cc21`, the Activity in data set [5] worked out at 39%. In data set [6], the solubility entry is reported as “Insoluble”.
As for `Nc1ccc2[nH]c(S)nc2c1`, the Activity in [1] was 49%.
For the compound `N#Cc1nc2cccc(Cl)c2o1`, the IC50 in [2] is 93 µM; in [3], 10 µM.
For the compound `CCOc1ccc2[nH]c(S)nc2c1`, the Activity came out at 95% in [11] and 80% in data set [1]. Also, the Drug metabolism result in data set [12] is recorded as “Metabolite_Notdetected”.
Regarding `Cn1c(=S)[nH]c2c(Cl)cccc21`, the Activity in [13] was 50%.
As for `COc1ccc2[nH]c(S)nc2c1`, the Activity in [1] is 97%.
On to `Sc1nc2cc(Cl)ccc2[nH]1`, for which the Drug metabolism result in data set [14], in [15], in data set [16], in data set [17] and in data set [12] was “Metabolite_Notdetected” throughout. In data set [3], this compound came in with a half-inhibitory concentration (IC50) of 62 µM. In data set [11], this compound registered an Activity of 98%.
As for `Cc1ccc2[nH]c(=S)[nH]c2c1`, the Activity in data set [1] was 95%.
Regarding `Cn1c(S)nc2cc(Cl)ccc21`, the Drug metabolism result in data set [14], in data set [15], in [16], in [17] and in [12] was “Metabolite_Notdetected” each time. In addition, the Activity in data set [11] worked out at 100%; in data set [13], 80%.
For the compound `Cc1cccc2[nH]c(=S)[nH]c12`, the Activity in data set [1] is 84%.
As for `Cn1c(S)nc2ccc(Cl)cc21`, the Drug metabolism result in [14] is given as “Metabolite_Notdetected”; in data set [15] it was “Metabolite_Notdetected”; in [16], “Metabolite_Notdetected”; in data set [17], “Metabolite_Notdetected”; in data set [12] it was “Metabolite_Detected”. Further, in data set [3], inhibition was half-maximal at 4.2 µM (IC50). This compound also registered an Activity in data set [11] of 94%.
Consider `Cn1c(=S)[nH]c2cccc(Cl)c21`, for which the Drug metabolism result is “Metabolite_Notdetected” in [14]; “Metabolite_Notdetected” in data set [15]; “Metabolite_Notdetected” in data set [16]; “Metabolite_Notdetected” in data set [17]; “Metabolite_Detected” in data set [12]. In data set [3], this compound had an IC50 of 1.8 µM. Moreover, the Activity in [11] is 99%.

(Values after ChEMBL document CHEMBL4819103, “Discovery of selective fragment-sized immunoproteasome inhibitors” (Eur J Med Chem, 2021).)
